For series [1], the system named is Plasmodium berghei (KBG-173 strain). The format is in vivo. The following applies: for # Mice Alive Day 30/Total / # Mice Dead/Day Died: oral. As for the experimental part:
B. Antimalarial Activities: (a). In Vitro Antimalarial Studies. The in vitro assays were conducted by using a modification of the semiautomated microdilution technique of Desjardins et al and Chulay et al.. Four P. falciparum malaria parasite clones, from CDC Indochina III (W-2), CDC Sierra Leone I (D-6), Southeast Asia Isolates (TM91C235) and RCS (Isolates from Brazil) were utilized in susceptibility testing. They were derived by direct visualization and micromanipulation from patient isolates. The W-2 clone is susceptible to mefloquine but resistant to chloroquine, sulfadoxine, pyrimethamine, and quinine, whereas the D-6 clone is naturally resistant to mefloquine but susceptible to chloroquine, sulfadoxine, pyrimethamine and quinine. Test compounds were initially dissolved in DMSO and diluted 400 fold in RPMI 1640 culture medium supplemented with 25 mM Hepes, 32 mM NaHCO3 and 10% Albumax I (Gibco BRL, Grand Island, N.Y.). These solutions were subsequently serially diluted two-fold with a Biomek 1000 (Beckman, Fullerton, Calif.) over 11 different concentrations. The parasites were exposed to serial dilutions of each compound for 48 hrs and incubated at 37° C. with 5% O2, 5% CO2 and 90% N2 prior to the addition of [^3H]hypoxanthine. After a further incubation of 18 hrs, parasite DNA was harvested from each microtiter well using Packard Filtermate 196 Harvester (Meriden, Conn.) onto glass filters. Uptake of [^3H]hypoxanthine was measured with a Packard Topcount Scintillation. Concentration-response data were analyzed by a non-linear regression logistic dose response model and the IC50 values (50% inhibitory concentrations) for each compound were calculated. (Table 3). (b). In Vivo Antimalarial Studies against P. berghei in mice: The in vivo efficacy of the artelinic acid analogs were determined in a modified Thompson test. This test measures the survivability of mice and parasitemia clearance following administration of drug on days 3-5 post infection. In brief, 5×10^6 P. berghei-infected erythrocytes (KBG-173 strain) were inoculated intraperitoneally to female mice that weighed 24-30 g. By day three post-infection, parasitemia ranged from 1.0-3.7%. Each drug, dissolved in 5% sodium bicarbonate, was administered PO twice daily from day 3-5 post-infection. Total doses for each drug ranged from 1.5-384 mg/kg with 8 mice included in each dosage group. The percent suppression of parasitemia in the treated mice compared to the untreated controls was determined for each test compound; the SD-50 (fifty percent suppression dose) and SD-90 were determined from a non-linear regression logistic dose response fit at day 6 parasitemia data. Survival of mice to day 60 post-infection was considered a cure (C). Compounds were considered active (A) when the survival time of the treated mice was greater than twice the control mice, i.e., 12-14 day (Table 4-5). (c). Sporozoite Induced Test Each compound is ground with a mortar & pestle and suspended in 0.5% hydroxyethylcellulose—0.1% Tween 80 for compounds to be administered PO and those given SC are suspended in peanut oil. Each compound is prepared at 3 different dose levels as requested by WRAIR. Compounds are administered either PO or SC to mice once 4 hr before inoculation of sporozoites. Four-week-old male CD-1 mice, purchased from Charles River and weighing 16-17 g, are placed 5 per cage and allowed to acclimate for 4 days before being treated and then inoculated with sporozoites. They are fed food and water ad-lib and maintained at 76° F. with 12 hr light and 12 hr darkness. The cages and water bottles are changed biweekly. The mice are weighed on Days 0, 3 and 6 then biweekly when blood films are taken. Plasmodium yoelii (17×) is used to infect mice that will be used to infect the mosquitoes. Mice are given a single dose of test compound 4 hr before being inoculated intraperitoneally with 2.5×10^5 sporozoites of Plasmodium yoelii on Day 0. […]

Series [2] in a line: Toxicity in P. cynomolgi-infected Rhesus monkeys. To be noted: 12 mg/kg/day for 7 consecutive days.

Like-named read-outs stand apart in the source and are kept apart here.

Take `CCOC(=O)Nc1nc(NC(=O)OCC)c2c(ccc3c2ccn3Cc2ccccc2C(F)(F)F)n1` [Compound 2b]: the “# Mice Alive Day 30/Total” value in series [1] (1.25 mg/kg/day) is reported as 3/5; in series [1] (80-2.5 mg/kg/day), 5/5. Moreover, the “# Mice Dead/Day Died” value in series [1] (80-2.5 mg/kg/day) is listed as “None”. In addition, in series [2], the signs of toxicity entry is “neither 2b nor 3e exhibited any sign of toxicity”.
Take `CC(=O)N(C(C)=O)c1nc(N(C(C)=O)C(C)=O)c2c(ccc3c2ccn3Cc2ccccc2C(F)(F)F)n1` [Compound 3e, 1,3-Bis(diacetylamino)-7-(2-trifluoromethyl)benzyl-7H-pyrrolo[3,2-f]quinazoline]: the “drug-related deaths in mice” value in series [1] (in vivo) is “no drug-related deaths”. Also, in series [1] (220-0.625 mg/kg/day), the “# Mice Alive Day 30/Total” value is on record as 5/5 and the “# Mice Dead/Day Died” value is recorded as “None”. In series [2], the signs of toxicity entry was “neither 2b nor 3e exhibited any sign of toxicity”.
